In ChEMBL document CHEMBL4665668, “Design and development of molecular hybrids of 2-pyridylpiperazine and 5-phenyl-1,3,4-oxadiazoles as potential multifunctional agents to treat Alzheimer's disease” (Eur J Med Chem, 2019):
Activity calls are given as the source filed them. The rule behind the calls is not given here.

target: Beta-secretase 1 (Homo sapiens, UniProt P56817); experiment: Inhibition of human BACE-1 using MOCA-SEV-NL-DAEFR-DNP-RR as substrate preincubated with substrate followed by enzyme addition by FRET assay; settings: not given
Sequence (P56817 whole entry): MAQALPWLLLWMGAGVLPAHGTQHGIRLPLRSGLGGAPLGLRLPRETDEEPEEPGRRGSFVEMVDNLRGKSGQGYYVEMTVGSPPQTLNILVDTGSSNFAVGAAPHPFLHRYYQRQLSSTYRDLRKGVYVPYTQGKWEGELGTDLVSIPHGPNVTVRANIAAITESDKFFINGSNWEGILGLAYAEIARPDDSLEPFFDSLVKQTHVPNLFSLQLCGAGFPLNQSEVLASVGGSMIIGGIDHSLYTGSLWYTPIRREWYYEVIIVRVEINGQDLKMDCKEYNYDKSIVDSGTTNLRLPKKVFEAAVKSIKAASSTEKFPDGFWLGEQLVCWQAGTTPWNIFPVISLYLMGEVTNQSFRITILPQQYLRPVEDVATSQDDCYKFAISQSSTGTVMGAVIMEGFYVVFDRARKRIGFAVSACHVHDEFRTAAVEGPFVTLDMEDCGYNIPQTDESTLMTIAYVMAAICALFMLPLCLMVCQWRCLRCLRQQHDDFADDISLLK

SMILES | IC50 [nM]
O=C(N/N=C/c1ccc([N+](=O)[O-])cc1)N1CCN(c2ccccn2)CC1 | 2640
O=C(N/N=C/c1ccc(OC(F)(F)F)cc1)N1CCN(c2ccccn2)CC1 | 248
Cc1ccc(/C=N/NC(=O)N2CCN(c3ccccn3)CC2)cc1 | 3920
O=C(N/N=C/c1ccc(F)cc1)N1CCN(c2ccccn2)CC1 | 1240
FC(F)(F)Oc1ccc(-c2nnc(N3CCN(c4ccccn4)CC3)o2)cc1 | 822
O=C(N/N=C/c1ccccc1O)N1CCN(c2ccccn2)CC1 | 5880
Brc1ccc(-c2nnc(N3CCN(c4ccccn4)CC3)o2)cc1 | 126
O=C(N/N=C/c1ccccc1)N1CCN(c2ccccn2)CC1 | 7690
Clc1ccc(-c2nnc(N3CCN(c4ccccn4)CC3)o2)cc1 | 1320
COc1cccc(-c2nnc(N3CCN(c4ccccn4)CC3)o2)c1OC | 2160
O=C(N/N=C/c1ccc(Br)cc1)N1CCN(c2ccccn2)CC1 | 296
O=[N+]([O-])c1ccc(-c2nnc(N3CCN(c4ccccn4)CC3)o2)cc1 | 1340
O=C(N/N=C/c1ccc(O)cc1O)N1CCN(c2ccccn2)CC1 | 4640
Cc1ccc(-c2nnc(N3CCN(c4ccccn4)CC3)o2)cc1 | 2480
Fc1ccc(-c2nnc(N3CCN(c4ccccn4)CC3)o2)cc1 | 1480

target: Cholinesterase (Homo sapiens, UniProt P06276); experiment: Inhibition of human serum BChE using butyrylthiocholine iodide as substrate preincubated for 10 mins followed by substrate addition by Ellman's method; format: cell-free; settings: not given
Sequence (P06276 whole entry): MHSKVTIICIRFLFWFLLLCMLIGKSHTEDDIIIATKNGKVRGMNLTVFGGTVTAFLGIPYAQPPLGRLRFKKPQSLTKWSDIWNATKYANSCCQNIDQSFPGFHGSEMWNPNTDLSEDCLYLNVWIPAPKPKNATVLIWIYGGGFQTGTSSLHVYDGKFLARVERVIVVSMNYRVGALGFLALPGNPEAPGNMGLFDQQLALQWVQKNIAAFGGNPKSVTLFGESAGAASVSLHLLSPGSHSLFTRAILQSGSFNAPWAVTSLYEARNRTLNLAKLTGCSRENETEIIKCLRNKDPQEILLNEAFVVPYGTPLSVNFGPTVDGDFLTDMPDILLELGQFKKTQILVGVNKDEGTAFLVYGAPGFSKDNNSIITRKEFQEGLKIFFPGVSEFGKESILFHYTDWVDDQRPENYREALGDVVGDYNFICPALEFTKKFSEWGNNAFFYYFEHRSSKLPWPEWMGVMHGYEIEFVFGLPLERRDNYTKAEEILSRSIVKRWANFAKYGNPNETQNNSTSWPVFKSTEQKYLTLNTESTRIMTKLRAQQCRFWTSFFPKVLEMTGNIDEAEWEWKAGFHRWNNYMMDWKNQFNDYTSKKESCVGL

SMILES | IC50 [µM]
O=C(N/N=C/c1ccc([N+](=O)[O-])cc1)N1CCN(c2ccccn2)CC1 | 4.02
O=C(N/N=C/c1ccc(OC(F)(F)F)cc1)N1CCN(c2ccccn2)CC1 | 4.35
Cc1ccc(/C=N/NC(=O)N2CCN(c3ccccn3)CC2)cc1 | > 10
O=C(N/N=C/c1ccc(F)cc1)N1CCN(c2ccccn2)CC1 | 3.99
FC(F)(F)Oc1ccc(-c2nnc(N3CCN(c4ccccn4)CC3)o2)cc1 | 1.96
O=C(N/N=C/c1ccccc1O)N1CCN(c2ccccn2)CC1 | > 10
Brc1ccc(-c2nnc(N3CCN(c4ccccn4)CC3)o2)cc1 | 0.846
O=C(N/N=C/c1ccccc1)N1CCN(c2ccccn2)CC1 | 4.22
Clc1ccc(-c2nnc(N3CCN(c4ccccn4)CC3)o2)cc1 | 1.82
COc1cccc(-c2nnc(N3CCN(c4ccccn4)CC3)o2)c1OC | 5.22
O=C(N/N=C/c1ccc(Br)cc1)N1CCN(c2ccccn2)CC1 | 1.88
O=[N+]([O-])c1ccc(-c2nnc(N3CCN(c4ccccn4)CC3)o2)cc1 | 2.86
O=C(N/N=C/c1ccc(O)cc1O)N1CCN(c2ccccn2)CC1 | 4.82
Cc1ccc(-c2nnc(N3CCN(c4ccccn4)CC3)o2)cc1 | > 10
Fc1ccc(-c2nnc(N3CCN(c4ccccn4)CC3)o2)cc1 | 1.22

target: T1, Acetylcholinesterase (Homo sapiens, UniProt P22303); experiment: Inhibition of human erythrocytes AChE using acetylthiocholine iodide as substrate preincubated for 10 mins followed by substrate addition by Ellman's method; format: tissue-based, Erythrocyte; settings: not given
T1 sequence (P22303 whole entry): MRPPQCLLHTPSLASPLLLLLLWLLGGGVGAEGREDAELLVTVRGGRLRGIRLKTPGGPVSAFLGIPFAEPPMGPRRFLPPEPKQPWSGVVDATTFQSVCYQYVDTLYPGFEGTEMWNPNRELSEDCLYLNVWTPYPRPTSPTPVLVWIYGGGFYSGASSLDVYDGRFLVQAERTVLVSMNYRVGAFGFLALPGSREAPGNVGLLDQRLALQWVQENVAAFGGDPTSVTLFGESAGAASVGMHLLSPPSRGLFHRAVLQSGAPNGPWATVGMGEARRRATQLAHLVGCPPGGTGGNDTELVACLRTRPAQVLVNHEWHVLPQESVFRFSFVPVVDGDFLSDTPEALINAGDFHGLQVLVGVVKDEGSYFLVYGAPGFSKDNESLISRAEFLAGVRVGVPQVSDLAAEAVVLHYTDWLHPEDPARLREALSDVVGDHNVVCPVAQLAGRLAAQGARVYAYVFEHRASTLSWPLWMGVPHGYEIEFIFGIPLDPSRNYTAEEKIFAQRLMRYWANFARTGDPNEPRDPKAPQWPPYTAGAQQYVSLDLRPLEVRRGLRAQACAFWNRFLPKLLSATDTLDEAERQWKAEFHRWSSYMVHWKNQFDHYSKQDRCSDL

SMILES | IC50 [nM]
O=C(N/N=C/c1ccc([N+](=O)[O-])cc1)N1CCN(c2ccccn2)CC1 | 1160
O=C(N/N=C/c1ccc(OC(F)(F)F)cc1)N1CCN(c2ccccn2)CC1 | 2910
Cc1ccc(/C=N/NC(=O)N2CCN(c3ccccn3)CC2)cc1 | 4780
O=C(N/N=C/c1ccc(F)cc1)N1CCN(c2ccccn2)CC1 | 1870
FC(F)(F)Oc1ccc(-c2nnc(N3CCN(c4ccccn4)CC3)o2)cc1 | 89
O=C(N/N=C/c1ccccc1O)N1CCN(c2ccccn2)CC1 | > 10000
Brc1ccc(-c2nnc(N3CCN(c4ccccn4)CC3)o2)cc1 | 74
O=C(N/N=C/c1ccccc1)N1CCN(c2ccccn2)CC1 | 3620
Clc1ccc(-c2nnc(N3CCN(c4ccccn4)CC3)o2)cc1 | 102
COc1cccc(-c2nnc(N3CCN(c4ccccn4)CC3)o2)c1OC | 1190
O=C(N/N=C/c1ccc(Br)cc1)N1CCN(c2ccccn2)CC1 | 489
O=[N+]([O-])c1ccc(-c2nnc(N3CCN(c4ccccn4)CC3)o2)cc1 | 219
O=C(N/N=C/c1ccc(O)cc1O)N1CCN(c2ccccn2)CC1 | 4680
Cc1ccc(-c2nnc(N3CCN(c4ccccn4)CC3)o2)cc1 | 1020
Fc1ccc(-c2nnc(N3CCN(c4ccccn4)CC3)o2)cc1 | 136

system: not listed separately; experiment: Permeability of the compound in PBS/EtOH buffer (7:3) at 25 ug/ml after 18 hrs by PAMPA-BBB assay; settings: not given

SMILES | Papp at 18 h, 25 ug/ml [×10⁻⁶ cm/s]
FC(F)(F)Oc1ccc(-c2nnc(N3CCN(c4ccccn4)CC3)o2)cc1 | 6.8
Brc1ccc(-c2nnc(N3CCN(c4ccccn4)CC3)o2)cc1 | 5.9
O=C(N/N=C/c1ccc(Br)cc1)N1CCN(c2ccccn2)CC1 | 3.6

system: SH-SY5Y; experiment: Neuroprotective activity against amyloid beta (1 to 42)-induced oxidative stress in human SH-SY5Y cells assessed as effect on cell viability at 10 to 80 uM measured after 24 hrs by MTT assay (reference value: 61 %); format: functional; settings: dose microM 10-80

SMILES | Activity [%]
Brc1ccc(-c2nnc(N3CCN(c4ccccn4)CC3)o2)cc1 | 63

system: not listed separately; experiment: Acute toxicity in Wistar rat assessed as abnormal signs at 100 to 500 mg/kg, po measured up to 14 days by OCED guideline method; format: organism-based; settings: in vivo, 336 h, dose 100-500 mg/kg, time 14 day

SMILES | Activity
Brc1ccc(-c2nnc(N3CCN(c4ccccn4)CC3)o2)cc1 | Non-Toxic

system: not listed separately; experiment: Acute toxicity in po dosed Wistar rat assessed as maximum tolerated dose by OCED guideline method; format: organism-based; settings: in vivo

SMILES | MTD [mg/kg]
Brc1ccc(-c2nnc(N3CCN(c4ccccn4)CC3)o2)cc1 | 100

system: Rattus norvegicus; experiment: Cognitive enhancing effect in po dosed scopolamine-induced Wistar rat model of amnesia assessed as increase in spontaneous alteration pretreated for 7 days followed by scopolamine challenge and measured after 30 mins by Y-maze test; format: functional, organism-based; settings: dose mg/kg 2.5-10, time 7.0 day

SMILES | Activity
Brc1ccc(-c2nnc(N3CCN(c4ccccn4)CC3)o2)cc1 | Dose-dependent effect

system: Rattus norvegicus; experiment: Cognitive enhancing effect in scopolamine-induced Wistar rat model of amnesia assessed as increase in spontaneous alteration at 10 mg/kg, po pretreated for 7 days followed by scopolamine challenge and measured after 30 mins by Y-maze test; format: functional, organism-based; settings: time 7.0 day

SMILES | Activity
Brc1ccc(-c2nnc(N3CCN(c4ccccn4)CC3)o2)cc1 | Active

system: Rattus norvegicus; experiment: (§1) Improvement in learning and spatial memory in icv infused amyloid beta (1 to 42)-induced rat model of Alzheimer's disease assessed as reduction in escape latency at 5 mg/kg, po administered daily for 7 days starting from 7 days post surgery and measured daily for 5 days by Morris water maze test; format: functional, organism-based; settings: time 12.0 day

SMILES | Activity
COc1cc2c(cc1OC)C(=O)C(CC1CCN(Cc3ccccc3)CC1)C2 (centres undefined) | Active

system: Rattus norvegicus; experiment: as §1, with “increase” for “reduction”, “number of platform crossing” for “escape latency”, “after 6” for “daily for 5”; format: functional, organism-based; settings: time 13.0 day

SMILES | Activity
COc1cc2c(cc1OC)C(=O)C(CC1CCN(Cc3ccccc3)CC1)C2 (centres undefined) | Active

organism: Rattus norvegicus; settings: Wistar, dose 5.0 mg/kg, time 7.0 day

SMILES | inhibition
COc1cc2c(cc1OC)C(=O)C(CC1CCN(Cc3ccccc3)CC1)C2 (centres undefined) | Active

target: Amyloid-beta precursor protein (Homo sapiens) (UniProt P05067); settings: dose microM 5-20, time 48.0 hrs
Sequence (P05067 whole entry): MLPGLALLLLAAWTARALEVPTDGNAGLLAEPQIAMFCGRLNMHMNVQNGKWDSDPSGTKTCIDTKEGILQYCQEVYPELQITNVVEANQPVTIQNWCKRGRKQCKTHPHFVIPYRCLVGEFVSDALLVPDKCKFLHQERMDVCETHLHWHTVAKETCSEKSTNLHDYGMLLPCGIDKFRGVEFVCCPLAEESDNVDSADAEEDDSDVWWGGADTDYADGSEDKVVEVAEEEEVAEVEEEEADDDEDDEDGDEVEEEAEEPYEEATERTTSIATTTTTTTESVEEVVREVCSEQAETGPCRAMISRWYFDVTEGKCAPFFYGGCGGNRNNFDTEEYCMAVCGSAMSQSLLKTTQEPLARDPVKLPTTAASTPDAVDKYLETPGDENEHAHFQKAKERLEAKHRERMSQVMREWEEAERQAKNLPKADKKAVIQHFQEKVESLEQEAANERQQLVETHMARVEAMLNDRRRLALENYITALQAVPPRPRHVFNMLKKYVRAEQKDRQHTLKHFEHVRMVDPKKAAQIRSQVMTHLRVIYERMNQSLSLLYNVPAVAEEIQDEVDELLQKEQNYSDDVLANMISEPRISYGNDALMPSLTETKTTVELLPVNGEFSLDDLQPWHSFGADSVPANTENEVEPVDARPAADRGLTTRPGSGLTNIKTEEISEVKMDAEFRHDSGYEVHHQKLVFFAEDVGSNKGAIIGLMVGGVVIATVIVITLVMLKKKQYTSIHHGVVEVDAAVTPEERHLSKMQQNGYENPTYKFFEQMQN

SMILES | Flu intensity
Brc1ccc(-c2nnc(N3CCN(c4ccccn4)CC3)o2)cc1 | 0.42
COc1cc2c(cc1OC)C(=O)C(CC1CCN(Cc3ccccc3)CC1)C2 (centres undefined) | 0.31

target: T1, Acetylcholinesterase; settings: dose microM 5-20, time 48.0 hrs

SMILES | Flu intensity
Brc1ccc(-c2nnc(N3CCN(c4ccccn4)CC3)o2)cc1 | 0.6
